Source: ChEMBL document CHEMBL1287798, “3,5-disubstituted pyranone analogues of highly antifungally active furanones: conversion of biological effect from antifungal to cytostatic” (Bioorg Med Chem Lett, 2010)

Legend:
Nannizzia gypsea = experiment: Antifungal activity against Microsporum gypseum by microdilution method; format: functional
Pichia kudriavzevii [1] = experiment: Antifungal activity against Candida krusei E28 by microdilution method; format: functional
Nakaseomyces glabratus = experiment: Antifungal activity against Candida glabrata 20/I by microdilution method; format: functional
Clavispora lusitaniae = experiment: Antifungal activity against Clavispora lusitaniae 2446/I by microdilution method
Trichosporon beigelii = experiment: Antifungal activity against Trichosporon beigelii 1188 by microdilution method; format: functional
Candida albicans [2] = experiment: Antifungal activity against Candida albicans ATCC 44859 by microdilution method; format: functional
Pichia kudriavzevii [3] = experiment: Antifungal activity against Candida krusei ATCC 6258 by microdilution method; format: functional
Candida parapsilosis = experiment: Antifungal activity against Candida parapsilosis ATCC 22019 by microdilution method; format: functional; details: Lodderomyces parapsilosis
Candida albicans [4] = experiment: Antifungal activity against Candida albicans ATCC 90028 by microdilution method; format: functional
Lichtheimia corymbifera = experiment: Antifungal activity against Absidia corymbifera 272 by microdilution method; format: functional
Candida tropicalis = experiment: Antifungal activity against Candida tropicalis 156 by microdilution method; format: functional
Aspergillus fumigatus = experiment: Antifungal activity against Aspergillus fumigatus 231 by microdilution method; format: functional
[5] = system: Trichophyton mentagrophytes; experiment: Antifungal activity against Trichophyton mentagrophytes 445 by microdilution method; format: functional

Measured: MIC

CC(C)(C)C(=O)OCC1C=C(c2ccccc2)C(=O)OC1 (centres undefined)
≥ 62.5 µM: all assays above

CC(=O)OCC1C=C(c2ccc(Br)cc2)C(=O)OC1 (centres undefined)
≥ 62.5 µM: all assays above

CC(C)(C)C(=O)OCC1C=C(c2ccc(Cl)cc2)C(=O)OC1 (centres undefined)
≥ 62.5 µM: all assays above

CC(C)(C)C(=O)OCC1C=C(c2cccc(Cl)c2)C(=O)OC1 (centres undefined)
≥ 62.5 µM: all assays above

CC(=O)OCC1C=C(c2ccc(Cl)cc2)C(=O)OC1 (centres undefined)
≥ 62.5 µM: all assays above

O=C1OCC(COC(=O)c2ccccc2)C=C1c1ccccc1 (centres undefined)
≥ 62.5 µM: all assays above

COc1ccc(C2=CC(COC(=O)C(C)(C)C)COC2=O)cc1 (centres undefined)
≥ 62.5 µM: all assays above

CC(=O)OCC1C=C(c2cccc(Cl)c2)C(=O)OC1 (centres undefined)
≥ 62.5 µM: all assays above

CC(C)(C)C(=O)OCC1C=C(c2ccc(Cl)c(Cl)c2)C(=O)OC1 (centres undefined)
≥ 62.5 µM: all assays above

CC(=O)OCC1C=C(c2ccccc2)C(=O)OC1 (centres undefined)
≥ 62.5 µM: all assays above

O=C1OCC(COC(=O)c2ccccc2)C=C1c1cccc(Cl)c1 (centres undefined)
≥ 62.5 µM: all assays above

CC(C)(C)C(=O)OCC1C=C(c2ccc(Br)cc2)C(=O)OC1 (centres undefined)
≥ 62.5 µM: all assays above

COc1ccc(C2=CC(COC(=O)c3ccccc3)COC2=O)cc1 (centres undefined)
≥ 62.5 µM: all assays above
